This note sets out measurements from patent US20150025236A1, “PROCESS FOR THE PREPARATION OF STABLE CRYSTALLINE FORM-I OF LINEZOLID, SUBSTANTIALLY FREE OF RESIDUAL SOLVENT” (Jubilant Life Sciences Limited, priority 2012, published 2015).

Molecules are shown by their SMILES.

The series can be described thus: Stability study: determination of linezolid Form-II content in linezolid Form-I (polymorph status by XRD).

Regarding `CC(=O)NC[C@H]1CN(c2ccc(N3CCOCC3)c(F)c2)C(=O)O1` [Linezolid Form-I, (S)—N-[[3-(3-fluoro-4-morpholinylphenyl)-2-oxo-5-oxazolidinyl]methyl]acetamide], the “Polymorphic stability (formation of polymorphic impurity Form-II)” value (containing residual solvent(s), though complying with the regulatory norms) is listed as “undergoes transformation into Form II” and the “Polymorphic stability (formation of polymorphic impurity Form-II)” value (substantially free of solvent(s)) is reported as “does not generate polymorphic impurity, Form-II”. Moreover, the “Time stable during stability study” value (different conditions of relative humidity (RH) and temperature (Table-1)) is listed as “up to 12 months”.
